Drawing on the Deep4Chem optical property database, this text covers fluorescence lifetime for 44 compounds.

The series is described as follows: solvent given as SMILES.

Molecules are shown by their SMILES.

As for `CN(C)c1ccc(-c2nc3c(c4c2-c2ccc(C#N)cc2CC4)-c2ccc(C#N)cc2CC3)cc1`, the fluorescence lifetime by setting is: (in C1CCOC1) 2.93 ns; (in CC#N) 3.56 ns; (in CCCCCC) 0.6 ns; (in CCOC(C)=O) 2.55 ns; (in CO) 1.13 ns; (in CS(C)=O) 1.79 ns. Moreover, the fluorescence lifetime was found to be 1.4 ns (in Cc1ccccc1) and 1.68 ns (in ClCCl).
Under “in C1CCCCC1”, `C[Si](C)(C)C#Cc1ccc(C#C[Si](C)(C)C)c2ccccc12` displayed a fluorescence lifetime of 2 ns.
Turning to `CCc1c(C)[nH]c(C2=[N+]3C(=Cc4c(C)c(CC)c(C)n4[B-]3(F)F)c3ccccc32)c1C`, the fluorescence lifetime (in ClCCl) turned out to be 6.3 ns.
`COC(=O)c1cc(=O)n(C)c2cc(-c3cc(OC)c(OC)c(OC)c3)sc12` came in with a fluorescence lifetime (in ClCCl) of 1.36 ns.
Regarding `O=S1(=O)c2ccccc2C2(c3cc(-c4ccc(N(c5ccccc5)c5ccccc5)cc4)ccc3-c3ccc(-c4ccc(N(c5ccccc5)c5ccccc5)cc4)cc32)c2ccccc21`, the fluorescence lifetime (in ClCCl) turned out to be 1.5 ns.
Under “in CCCCCC”, `COC(=O)c1c(C(=O)OC)c2ccc(C)nn2c1C` had a fluorescence lifetime of 14.1 ns.
Regarding `CN(C)c1ccc2nc(/C=C/c3cc4c5c(c3)CCCN5CCC4)c(=O)oc2c1`, the fluorescence lifetime (in C1COCCO1) is 2.9 ns; the fluorescence lifetime (in CC#N) was 0.22 ns; the fluorescence lifetime (in CC(C)=O) came to 0.8 ns; the fluorescence lifetime (in CCCCCCC) was 2.02 ns; the fluorescence lifetime (in CCOC(C)=O) stood at 2.4 ns; the fluorescence lifetime (in CN(C)C=O) was found to be 0.18 ns. In addition, the fluorescence lifetime is 0.32 ns (in CS(C)=O), 2.6 ns (in Cc1ccccc1), 1.35 ns (in ClC(Cl)Cl) and 1.35 ns (in ClCCl).
In turn, `O=C1O[B-]2(OC1=O)OC(c1ccc3ccccc3c1)=CC(c1ccc3ccccc3c1)=[O+]2` yielded a fluorescence lifetime (in CC#N) of 4.6 ns and a fluorescence lifetime (in ClC(Cl)(Cl)Cl) of 1.8 ns.
As for `CCCCOc1ccc(-c2oc3cc4n(c3c2-c2ccc(OCCCC)cc2)[B-](F)(F)[N+]2=Cc3cc5oc(-c6ccc(OCCCC)cc6)c(-c6ccc(OCCCC)cc6)c5n3[B-](F)(F)[N+]2=C4)cc1`, the fluorescence lifetime (in ClCCl) was determined as 1.97 ns.
As to `C(/C=C/c1cc2c3c(c1)CCCN3CCC2)=C\c1ccncc1`, the fluorescence lifetime (in C1COCCO1) was found to be 0.25 ns and the fluorescence lifetime (in CC#N) amounted to 0.57 ns.
For the setting “in CC#N”, `O=C(O)c1ccc(-c2nc(-c3ccccc3)c3c4ccccc4ccn23)cc1` showed a fluorescence lifetime of 2.5 ns.
Take `CCOC(=O)CCCCCn1c2ccc(F)cc2c(=O)c2cc3c(cc21)c(=O)c1cc(F)ccc1n3CCCCCC(=O)OCC`: the fluorescence lifetime (in CO) turned out to be 22.7 ns.
For the compound `Cn1cccc1-c1ccc(C#N)cc1`, the fluorescence lifetime was found to be 5.4 ns (in CC#N), 1.8 ns (in CCCCCC) and 5.21 ns (in CCOCC).
For the setting “in C1CCOC1”, `F[B-]1(F)n2c(/C=C/c3ccc(C(=C(c4ccccc4)c4ccccc4)c4ccccc4)cc3)ccc2C(c2ccc(C(=C(c3ccccc3)c3ccccc3)c3ccccc3)cc2)=C2C=CC(/C=C/c3ccc(C(=C(c4ccccc4)c4ccccc4)c4ccccc4)cc3)=[N+]21` yielded a fluorescence lifetime of 3.89 ns.
For the setting “in Cc1ccccc1”, `COc1ccc(C2=CC(c3ccccc3)=[N+]3C2=Nc2c(-c4ccc(OC)cc4)cc(-c4ccccc4)n2[B-]3(F)F)cc1` had a fluorescence lifetime of 1.56 ns.
In turn, `COc1ccc(C2=C(C)C3=C(c4c(-c5ccccn5)nc5ccccn45)c4c(C)c(-c5ccc(OC)cc5)c(C)n4[B-](F)(F)[N+]3=C2C)cc1` registered a fluorescence lifetime (in ClCCl) of 3.5 ns.
For `CCCCCCc1cc(-c2ccc3c(c2)C2CCCC2N3c2ccc3c(c2)C(C)(C)c2ccccc2-3)sc1/C=C1\C(=O)c2ccc(C(=O)O)cc2C1=O` (centres undefined), the fluorescence lifetime (in ClC(Cl)Cl) was determined as 1.32 ns.
With `C(=C\c1nc(-c2ccccc2)c2ccccn12)/c1nc(-c2ccccc2)c2ccccn12`, the fluorescence lifetime (in CC#N) stood at 1 ns.
As to `CC1(C)C(/C=C/C2=C(Oc3ccc(CCN=C=S)cc3Br)C(=C/C=C3/N(CCCS(=O)(=O)[O-])c4ccccc4C3(C)C)/CCC2)=[N+](CCCS(=O)(=O)[O-])c2ccccc21`, for the setting “in CO”, the fluorescence lifetime worked out at 0.912 ns.
With `O=c1c2cccc3cccc(c32)c2nc3c4ccccc4c4ccccc4c3n12`, the fluorescence lifetime (in ClCCl) was found to be 5.5 ns.
`O=Cc1ccc(C#CC(C#Cc2ccc(C=O)o2)=Cc2ccc(C=C(C#Cc3ccc(C=O)o3)C#Cc3ccc(C=O)o3)cc2)o1` displayed a fluorescence lifetime (in ClC(Cl)Cl) of 0.6 ns.
Turning to `COc1cc2cc(C#Cc3ccc(/C=C(\C#N)C(=O)O)cc3)c(=O)oc2cc1OC`, the fluorescence lifetime (in CC#N) was 1.16 ns.
For the compound `O=C1C(=c2c(=O)c3c4ccccc4cc4cc5ccccc5c2c43)C(=O)c2ccccc21`, the fluorescence lifetime is, setting by setting: (in C1CCOC1) 10.7 ns; (in CC#N) 6.9 ns; (in CCCCCC) 12.4 ns; (in Cc1ccccc1) 11.3 ns; (in ClCCl) 8.7 ns.
Consider `COc1ccc2cc(/C=C/c3ccccc3)c(=O)oc2c1`, for which, where the note is “in CC#N”, the fluorescence lifetime worked out at 2.75 ns.
As for `C(=C\c1ccc(-n2c3ccccc3c3ccccc32)cc1)/c1ccc(-c2ccc(/C=C/c3ccc(-n4c5ccccc5c5ccccc54)cc3)cc2)cc1`, the fluorescence lifetime (in Cc1ccccc1) was 0.87 ns and the fluorescence lifetime (in c1ccc2c(c1)c1ccccc1n2-c1ccc(-c2ccc(-n3c4ccccc4c4ccccc43)cc2)cc1) was found to be 1.3 ns.
Take `BrCCCCCCCCCCCCOc1cc2ccc3cccc4ccc(c1)c2c34`: the fluorescence lifetime (in Cc1ccccc1) amounted to 60 ns.
As to `C(/C=C/c1ccc(-n2c3ccccc3c3ccccc32)cc1)=C\c1ccncc1`, the fluorescence lifetime by setting is: (in C1COCCO1) 1.32 ns; (in CC#N) 2.52 ns.
Regarding `N#Cc1ccc(-n2c(-c3ccc(-c4ccc(-c5nc6c7ccccc7c7ccccc7c6n5-c5ccc(C#N)c6ccccc56)cc4)cc3)nc3c4ccccc4c4ccccc4c32)c2ccccc12`, the fluorescence lifetime (in ClCCl) was found to be 1.92 ns.
Turning to `CCOc1cc2c(cc1/C=C/C1=CC(=C(C#N)C#N)CC(C)(C)C1)c1ccccc1n2CC`, the fluorescence lifetime (in C1CCOC1) stood at 4.47 ns; the fluorescence lifetime (in CC#N) is 3.81 ns; the fluorescence lifetime (in CCO) was found to be 4.28 ns; the fluorescence lifetime (in CCOC(C)=O) turned out to be 7.08 ns; the fluorescence lifetime (in CN(C)C=O) came out at 4.01 ns; the fluorescence lifetime (in CS(C)=O) turned out to be 4.94 ns. For the same compound, the fluorescence lifetime reads like this: (in Cc1ccccc1) 3.84 ns; (in ClC(Cl)Cl) 4.37 ns; (in ClCCl) 6.24 ns.
Consider `COC(=O)c1c(C(=O)OC)c2ccc(-c3ccccc3)nn2c1C`, for which the fluorescence lifetime (in CCCCCC) was 21 ns.
Turning to `O=C(O)CCCCCn1c2ccc(Br)cc2c(=O)c2cc(S(=O)(=O)O)ccc21`, the fluorescence lifetime (in O) is 7.1 ns.
`COc1ccc(C#Cc2ccccc2C#Cc2ccc(OC)cc2)cc1`: the fluorescence lifetime (in CC#N) was determined as 2.14 ns.
Regarding `CC(=O)c1ccc(-c2cnc3nn4ccccc4c3n2)cc1`, the fluorescence lifetime (in C1CCOC1) stood at 5.1 ns.
Turning to `COc1ccc(C#Cc2ccc(-c3nn[nH]n3)cc2)cc1OC`, the fluorescence lifetime amounted to 0.94 ns (in C1CCOC1); 0.81 ns (in C1COCCO1); 0.46 ns (in CC#N); 0.86 ns (in CCOC(C)=O); 0.66 ns (in CS(C)=O); 0.73 ns (in Cc1ccccc1).
As for `CC1=[N+]2C(=Cc3cccn3[B-]2(F)F)C=C1`, the fluorescence lifetime was 6.75 ns (in CCCCCC), 6.96 ns (in CO) and 6.2 ns (in ClCCl).
`Cc1ccc(C2=Nc3cccc4[n+]3[B-](c3ccccc3)(N2)NC(c2ccc(C)cc2)=N4)cc1` yielded a fluorescence lifetime (in ClCCl) of 2.6 ns.
`C=C[C@]12CC[C@H](CC1)N=N2` registered a fluorescence lifetime (in CC#N) of 0.56 ns.
`COc1cc(OC)c2cc(-c3ccccc3CC#N)c(=O)oc2c1` registered a fluorescence lifetime (in ClC(Cl)Cl) of 2.8 ns.
In the case of `COC(=O)C(Cc1ccc2oc(-c3ccc4c(c3)c3ccccc3n4-c3ccccc3)nc2c1)NC(=O)OC(C)(C)C` (centres undefined), the fluorescence lifetime turned out to be 2.29 ns (in C1CCCCC1); 1.73 ns (in C1CCOC1); 1.96 ns (in C1COCCO1); 1.83 ns (in CC1CCCO1); 1.83 ns (in CC1COC(=O)O1); 1.77 ns (in CC#N). Besides, the fluorescence lifetime is, setting by setting: (in CC(C)=O) 1.75 ns; (in CC(C)CC(C)(C)C) 2.22 ns; (in CC(C)CO) 1.55 ns; (in CC(C)O) 1.57 ns; (in CC(C)OC(C)C) 1.66 ns; (in CC(O)CO) 1.74 ns. For the same compound, the fluorescence lifetime is, setting by setting: (in CCC(C)CC) 2.25 ns; (in CCCCC) 2.66 ns; (in CCCCCC) 2.23 ns; (in CCCCCCCCC) 2.3 ns; (in CCCCCCCCCC) 2.33 ns; (in CCCCCCCO) 1.55 ns. For the same compound, the fluorescence lifetime was determined as 1.56 ns (in CCCCCCO); 1.54 ns (in CCCCCO); 1.54 ns (in CCCCO); 1.66 ns (in CCO); 1.87 ns (in CCOC(C)=O); 2.13 ns (in CCOCC). Also, the fluorescence lifetime came to 1.73 ns (in CN(C)C=O); 1.72 ns (in CO); 1.2 ns (in COCCOC); 1.69 ns (in CS(C)=O); 1.66 ns (in Cc1ccccc1); 1.76 ns (in Cc1ccccc1C). Besides, the fluorescence lifetime was found to be 1.32 ns (in ClC(Cl)Cl); 1.5 ns (in ClCCl); 1.86 ns (in NC=O); 1.58 ns (in OC1CCCCC1); 1.84 ns (in OCCO); 1.67 ns (in c1ccccc1).
In turn, `COc1ccc([Si](C)(C)C)c2ccccc12` returned a fluorescence lifetime (in C1CCCCC1) of 10 ns.
Where the note is “in O”, `CC1(C)C(=O)C=Cc2ccc(O)cc21` returned a fluorescence lifetime of 2.45 ns.
For `CCC(CC)COC1=CC2=C3c4cc(OCC(CC)CC)c(-c5cccs5)n4[B-](F)(F)[n+]4c3n(c3cc(C(C)(C)C)ccc34)[B-](F)(F)[N+]2=C1c1cccs1`, the fluorescence lifetime runs as follows: (in C1CCOC1) 0.5 ns; (in ClCCl) 0.7 ns.
Take `C(C#Cc1ccc2ccc3cccc4ccc1c2c34)#Cc1cccc2ccccc12`: the fluorescence lifetime is, setting by setting: (in C1CCCCC1) 0.8 ns; (in CC#N) 1.2 ns; (in CO) 1.1 ns; (in ClCCl) 1.1 ns.
Where the note is “in ClCCl”, `COc1ccc2cc(/C=C/C3=C4CCc5ccccc5C4=[O+][B-](F)(F)O3)ccc2c1` came in with a fluorescence lifetime of 1.6 ns.
